By Cmax is commonly meant the peak of the concentration-time curve. For orientation: AUC means the area under the concentration-time curve, a measure of exposure. Broadly, the half-life is the time needed for the level to fall by half in the phase considered. As a reminder, the CC50 is the concentration that lowers cell viability or growth by half.

Active and inactive are the calls of the source.

This is an account of results in ChEMBL document CHEMBL5321279 (J Med Chem, 2023).

Series [1] can be described thus: Cmax in rat assessed as prodrug conversion by measuring (2R,3R,4S,5R)-2-(4-aminopyrrolo[2,1-f][1,2,4]triazin-7-yl)-3,4-dihydroxy-5-(hydroxymethyl)tetrahydrofuran-2-carbonitrile at 6 mg/kg, po measured upto 24 hrs by LC-MS/MS analysis. Particulars: in vivo. Format: ADME, organism-based. Further details: dose 6 mg/kg, time < 24 hrs, route po.
The test system of series [2] is SARS-CoV-2. Put plainly: Antiviral activity against SARS-CoV-2 infected in African green monkey assessed as reduction in viral genomic RNA load in throat swabs at 120 mg/kg, po qd administered for 4 days starting from 8 hrs post infection by RT-qPCR analysis. Type of series: functional, organism-based. Particulars: Severe acute respiratory syndrome coronavirus 2, time 4.0 day. For orientation: Real-time PCR tracks product formation cycle by cycle.

In series [3] the test system is SARS-CoV-2. The experiment in a line: Antiviral activity against SARS-CoV-2 infected in African green monkey assessed as reduction in viral titer in terminal respiratory tissue at 60 to 120 mg/kg, po qd administered for 6 days starting from 8 hrs post infection by PFA assay. Type of series: functional, organism-based. As to conditions: Severe acute respiratory syndrome coronavirus 2, dose lower 60.0 mg/kg, dose upper […], time 6.0 day.

A short description of series [4]: AUC(0 to 24 hrs) in dog assessed as prodrug conversion by measuring (2R,3R,4S,5R)-2-(4-aminopyrrolo[2,1-f][1,2,4]triazin-7-yl)-3,4-dihydroxy-5-(hydroxymethyl)tetrahydrofuran-2-carbonitrile at […], po measured upto 24 hrs by LC-MS/MS analysis. Format: ADME, organism-based, Canis lupus familiaris. Particulars: in vivo.
The nature of series [5]: Stability of compound in cynomolgus monkey gastrointestinal S9 fraction assessed as half life at pH 7.4 measured upto 120 mins by LC-MS/MS analysis. Format: ADME, subcellular, Macaca fascicularis, Gastrointestinal tract.
Series [6] can be described thus: Stability of compound in rat gastrointestinal S9 fraction assessed as half life at pH 7.4 measured upto 120 mins by LC-MS/MS analysis. Type of series: ADME, subcellular, Gastrointestinal tract.
The nature of series [7]: Oral bioavailability in dog assessed as prodrug conversion by measuring (2R,3R,4S,5R)-2-(4-aminopyrrolo[2,1-f][1,2,4]triazin-7-yl)-3,4-dihydroxy-5-(hydroxymethyl)tetrahydrofuran-2-carbonitrile at […] measured upto 24 hrs by LC-MS/MS analysis. Type of series: ADME, organism-based, Canis lupus familiaris. As to conditions: in vivo.
The nature of series [8]: Stability of compound in human plasma assessed as half life measured upto 4 hrs by LC-MS/MS analysis. Type of series: ADME, cell-free.
Series [9] in a line: AUC(0 to 24 hrs) in dog at […], po measured upto 24 hrs by LC-MS/MS analysis. Particulars: in vivo. Type of series: ADME, organism-based, Canis lupus familiaris.
Series [10] is described as follows: AUC(0 to 24 hrs) in African green monkey assessed as prodrug conversion by measuring (2R,3R,4S,5R)-2-(4-aminopyrrolo[2,1-f][1,2,4]triazin-7-yl)-3,4-dihydroxy-5-(hydroxymethyl)tetrahydrofuran-2-carbonitrile at 60 mg/kg, po measured upto 24 hrs by LC-MS/MS analysis. Format: ADME, organism-based. Further details: time < 24 hrs, dose 60 mg/kg, route po. Particulars: chlorocebus sabaeus, in vivo.

Series [11] deals with SARS-CoV-2. Put plainly: Antiviral activity against SARS-CoV-2 infected in African green monkey assessed as reduction in viral genomic RNA load in throat swabs at 60 to 120 mg/kg, po qd administered for 6 days starting from 8 hrs post infection by RT-qPCR analysis. Type of series: functional, organism-based. As to conditions: Severe acute respiratory syndrome coronavirus 2, dose lower 60.0 mg/kg, dose upper […], time 6.0 day.

For series [12], the system named is SARS-CoV-2. The experiment in a line: Antiviral activity against SARS-CoV-2 infected in African green monkey assessed as reduction in viral genomic RNA load in nasal swabs at 60 to 120 mg/kg, po qd administered for 4 days starting from 8 hrs post infection by RT-qPCR analysis. Type of series: functional, organism-based. As to conditions: Severe acute respiratory syndrome coronavirus 2, dose lower 60.0 mg/kg, dose upper […], time 4.0 day.

Series [13] is described as follows: Oral bioavailability in African green monkey assessed as prodrug conversion by measuring (2R,3R,4S,5R)-2-(4-aminopyrrolo[2,1-f][1,2,4]triazin-7-yl)-3,4-dihydroxy-5-(hydroxymethyl)tetrahydrofuran-2-carbonitrile at 86.5 mg/kg measured upto 24 hrs by LC-MS/MS analysis. Particulars: chlorocebus sabaeus, in vivo. Format: ADME, organism-based.
Series [14] can be described thus: Oral bioavailability in African green monkey assessed as prodrug conversion by measuring (2R,3R,4S,5R)-2-(4-aminopyrrolo[2,1-f][1,2,4]triazin-7-yl)-3,4-dihydroxy-5-(hydroxymethyl)tetrahydrofuran-2-carbonitrile at 60 mg/kg measured upto 24 hrs by LC-MS/MS analysis. Format: ADME, organism-based. Particulars: chlorocebus sabaeus, in vivo.
A short description of series [15]: Aqueous stability of the compound assessed as compound remaining at pH 2 measured at 24 hrs by UPLC analysis. Type of series: physicochemical. As to conditions: aqueous solution, read-out: Stability.
Series [16] relates to CES1c. The experiment in a line: Stability of compound assessed as human recombinant CES1c-mediated compound hydrolysis by measuring half life at pH 7.4 using oseltamivir as substrate measured upto 120 mins by LC-MS/MS analysis. Format: ADME. Particulars: pH 7.4, probe oseltamivir.
Series [17] in a line: Half life in African green monkey assessed as prodrug conversion by measuring (2R,3R,4S,5R)-2-(4-aminopyrrolo[2,1-f][1,2,4]triazin-7-yl)-3,4-dihydroxy-5-(hydroxymethyl)tetrahydrofuran-2-carbonitrile at 60 mg/kg, po measured upto 24 hrs by LC-MS/MS analysis. Format: ADME, organism-based. Particulars: chlorocebus sabaeus, in vivo.
A short description of series [18]: Stability of compound in dog plasma assessed as half life measured upto 4 hrs by LC-MS/MS analysis. Format: ADME, cell-free, Canis lupus familiaris.
Series [19] has as its system SARS-CoV-2. Put plainly: Antiviral activity against SARS-CoV-2 infected in African green monkey assessed as reduction in genomic RNA load in BALF at 60 to 120 mg/kg, po qd administered for 6 days starting from 8 hrs post infection by RT-qPCR analysis. As to conditions: Severe acute respiratory syndrome coronavirus 2, dose lower 60.0 mg/kg, dose upper […], time 6.0 day. Format: functional, organism-based.

Series [20] in a line: Cmax in African green monkey assessed as prodrug conversion by measuring (2R,3R,4S,5R)-2-(4-aminopyrrolo[2,1-f][1,2,4]triazin-7-yl)-3,4-dihydroxy-5-(hydroxymethyl)tetrahydrofuran-2-carbonitrile at 60 mg/kg, po measured upto 24 hrs by LC-MS/MS analysis. Format: ADME, organism-based. Further details: dose 60 mg/kg, time < 24 hrs, route po. Particulars: chlorocebus sabaeus, in vivo.

The nature of series [21]: Aqueous stability of the compound assessed as compound remaining at pH 7 measured at 24 hrs by UPLC analysis. Format: physicochemical. As to conditions: aqueous solution, read-out: Stability.
A short description of series [22]: Half life in African green monkey assessed as prodrug conversion by measuring (2R,3R,4S,5R)-2-(4-aminopyrrolo[2,1-f][1,2,4]triazin-7-yl)-3,4-dihydroxy-5-(hydroxymethyl)tetrahydrofuran-2-carbonitrile at 86.5 mg/kg, po measured upto 24 hrs by LC-MS/MS analysis. Type of series: ADME, organism-based. Particulars: chlorocebus sabaeus, in vivo.
Series [23] relates to PC-3. Put plainly: (§1) Cytotoxicity against human PC-3 cells assessed as reduction in cell growth measured after 5 days by CellTiter-Glo assay. Format: toxicity, cell-based. Particulars: pc-3, 120 h, time 5 day.
The nature of series [24]: AUC(0 to 24 hrs) in African green monkey infected with SARS-CoV-2 assessed as prodrug conversion by measuring (2R,3R,4S,5R)-2-(4-aminopyrrolo[2,1-f][1,2,4]triazin-7-yl)-3,4-dihydroxy-5-(hydroxymethyl)tetrahydrofuran-2-carbonitrile at 10 mg/kg, iv qd administered for day 1 followed by 5 mg/kg administration measured after 6 days by LC-MS/MS analysis. Type of series: ADME, organism-based, Severe acute respiratory syndrome coronavirus 2. Also on record: dose 10 mg/kg, time 6 day, route iv. As to conditions: in vivo.

Series [25] in a line: as §1. As to conditions: PC-3 cells, time 5 day. Format: toxicity, cell-based.
The nature of series [26]: Prodrug conversion in cynomolgus monkey assessed as Nucleotide triphosphate metabolite formation in lung at 20 mg/kg, iv measured upto 24 hrs by LC-MS/MS analysis. Type of series: ADME, organism-based, Macaca fascicularis. Particulars: in vivo.
The nature of series [27]: AUC(0 to 24 hrs) in rat at 5 mg/kg, po measured upto 24 hrs by LC-MS/MS analysis. Type of series: ADME, organism-based. Also on record: dose 5 mg/kg, time < 24 hrs, route po. As to conditions: in vivo.
Series [28] is described as follows: AUC(0 to 24 hrs) in rat at 1 mg/kg, iv measured upto 24 hrs by LC-MS/MS analysis. Type of series: ADME, organism-based. Also on record: dose 1 mg/kg, time < 24 hrs, route iv. As to conditions: in vivo.

Turning to `CC(C)C(=O)OC[C@H]1O[C@@](C#N)(c2ccc3c(N)ncnn23)[C@H](O)[C@@H]1O` [OBELDESIVIR], the results for the Cmax in series [1] and in series [20] were 2.1 µM and 22.5 µM, respectively. For the same compound, the outcome in series [2], in [3], in series [11], in series [12] and in series [19] was Active. Besides, the AUC was 202 µM·h in series [4], 0.4 µM·h in [9] and 129 µM·h in series [10]. For the same compound, the half-life in [5] is < 2 min; in series [6], > 2 min; in series [8] it was 29 min; in series [16], 4.3 min; in [18] it was 412 min. In addition, the F in [7] is reported as 93%; in series [13], 27%; in series [14], 36%. For the same compound, the remaining at 24 h in series [15] was ≥ 94%; in series [21], ≥ 96%. Besides, the t1/2 in series [17] was found to be 174 min; in series [22], 179 min. In [23], the CC50 is > 100 µM.
Consider `CCC(CC)COC(=O)[C@H](C)N[P@](=O)(OC[C@H]1O[C@@](C#N)(c2ccc3c(N)ncnn23)[C@H](O)[C@@H]1O)Oc1ccccc1`, for which, in [24], the AUC is 7.9 µM·h. Moreover, the CC50 at 120 h in series [25] was found to be 1.4 µM.
In the case of `N#C[C@@]1(c2ccc3c(N)ncnn23)O[C@H](CO)[C@@H](O)[C@H]1O` [GS-441524], in [26], the Drug metabolism worked out at 0.41 nmol/g. In addition, the figures for the AUC in series [27] and in [28] were 3.97 µM·h and 2.5 µM·h, respectively.
